Legend:
Assay type in all cases: in vivo
[1] = system: pigweed (Amaranthus retroflexus); experiment: Test C postemergence, plant response rating; conditions: for Plant response rating, Pigweed / pest or weed control at 16 g/ha / pest or weed control at 31 g/ha: scale 0 to 100
How it was run: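 Pre-emergence: seeds sown in loam soil–sand blend or silt loam and sprayed with test chemicals in a non-phytotoxic solvent mixture with surfactant. Post-emergence: plants 2 to 18 cm (1- to 4-leaf stage) in peat-based potting medium, same formulation. Greenhouse 13 to 15 d; visual rating 0 (no effect) to 100 (complete control) versus controls.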

rice (Oryza sativa) = experiment: Test B flooded paddy test, plant response rating; conditions: 250 g ai/ha, Flood, scale of 0 to 100 where 0 is no effect and 100 is complete control, 13 to 15 days; for plant injury at 250 g/ha: Oryza sativa, 312 h
How it was run: (§1)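 Under a constant 3 cm flood, test compounds went directly into the paddy water. Following 13 to 15 days of greenhouse growth, treated species and controls were compared by eye.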

[2] = system: ducksalad (Heteranthera limosa); experiment: Test B flooded paddy test, plant response rating; conditions: 250 g ai/ha, Flood, scale of 0 to 100 where 0 is no effect and 100 is complete control, 13 to 15 days; for pest or weed control at 250 g/ha: Heteranthera limosa, 312 h
How it was run: as §1

[3] = system: barnyardgrass (Echinochloa crus-galli); experiment: Test B flooded paddy test, plant response rating; conditions: 250 g ai/ha, Flood, scale of 0 to 100 where 0 is no effect and 100 is complete control, 13 to 15 days; for pest or weed control at 250 g/ha: Echinochloa crus-galli, 312 h
How it was run: as §1

[4] = system: sedge, umbrella (small-flower umbrella sedge, Cyperus difformis); experiment: Test B flooded paddy test, plant response rating; conditions: 250 g ai/ha, Flood, scale of 0 to 100 where 0 is no effect and 100 is complete control, 13 to 15 days; for pest or weed control at 250 g/ha: Cyperus difformis, 312 h
How it was run: as §1

[5] = system: wheat (Triticum aestivum); experiment: Test A postemergence, visual injury rating; conditions: 0 is no effect, 100 is complete control; for plant injury at 125 g/ha / plant injury at 500 g/ha: Triticum aestivum, post-emergence, 240 h, read-out: Wheat plant response rating (0 to 100 scale)
How it was run: (§2)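 Compounds in non-phytotoxic solvent with surfactant applied as soil spray preemergence, or postemergence to plants 2-10 cm at one- to two-leaf stage, in loam/sand. After approximately 10 days in greenhouse, injury rated visually versus untreated controls, 0 (no effect) to 100 (complete control).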

kochia (Kochia scoparia) = experiment: Test A postemergence, visual injury rating; conditions: 0 is no effect, 100 is complete control; for pest or weed control at 125 g/ha / pest or weed control at 500 g/ha: Bassia scoparia, post-emergence, 240 h, read-out: Kochia plant response rating (0 to 100 scale)
How it was run: as §2

[6] = system: ragweed (common ragweed, Ambrosia elatior); experiment: Test A postemergence, visual injury rating; conditions: 0 is no effect, 100 is complete control; for pest or weed control at 125 g/ha / pest or weed control at 500 g/ha: Ambrosia artemisiifolia, post-emergence, 240 h, read-out: Ragweed plant response rating (0 to 100 scale)
How it was run: as §2

[7] = system: giant foxtail (Setaria faberii); experiment: Test A postemergence, visual injury rating; conditions: 0 is no effect, 100 is complete control; for pest or weed control at 125 g/ha / pest or weed control at 500 g/ha: Setaria faberi, post-emergence, 240 h, read-out: Foxtail, Giant plant response rating (0 to 100 scale)
How it was run: as §2

[8] = system: barnyardgrass (Echinochloa crus-galli); experiment: Test A postemergence, visual injury rating; conditions: 0 is no effect, 100 is complete control; for pest or weed control at 125 g/ha / pest or weed control at 500 g/ha: Echinochloa crus-galli, post-emergence, 240 h, read-out: Barnyardgrass plant response rating (0 to 100 scale)
How it was run: as §2

[9] = system: Italian ryegrass (Lolium multiflorum); experiment: Test A postemergence, visual injury rating; conditions: 0 is no effect, 100 is complete control; for pest or weed control at 125 g/ha / pest or weed control at 500 g/ha: Lolium multiflorum, post-emergence, 240 h, read-out: Ryegrass, Italian plant response rating (0 to 100 scale)
How it was run: as §2

[10] = system: galium (catchweed bedstraw, Galium aparine); experiment: Test A postemergence, visual injury rating; conditions: 0 is no effect, 100 is complete control; for pest or weed control at 125 g/ha / pest or weed control at 500 g/ha: Galium, post-emergence, 240 h, read-out: Galium plant response rating (0 to 100 scale)
How it was run: as §2

[11] = system: pigweed (Amaranthus retroflexus); experiment: Test A postemergence, visual injury rating; conditions: 0 is no effect, 100 is complete control; for pest or weed control at 125 g/ha / pest or weed control at 500 g/ha: Amaranthus retroflexus, post-emergence, 240 h, read-out: Pigweed plant response rating (0 to 100 scale)
How it was run: as §2

[12] = system: blackgrass (Alopecurus myosuroides); experiment: Test A postemergence, visual injury rating; conditions: 0 is no effect, 100 is complete control; for pest or weed control at 125 g/ha / pest or weed control at 500 g/ha: Alopecurus myosuroides, post-emergence, 240 h, read-out: Blackgrass plant response rating (0 to 100 scale)
How it was run: as §2

corn (Zea mays) = experiment: Test A postemergence, visual injury rating; conditions: 0 is no effect, 100 is complete control; for plant injury at 125 g/ha / plant injury at 500 g/ha: Zea mays, post-emergence, 240 h, read-out: Corn plant response rating (0 to 100 scale)
How it was run: as §2

[13] = Amaranthus retroflexus, post-emergence, 16 g ai/ha
[14] = Amaranthus retroflexus, post-emergence, 31 g ai/ha

N#CCCOC(=O)c1c(Br)cccc1Oc1ncc(Cl)cn1 [Compound 7]
Plant response rating, Pigweed ([1]; 16 g ai/ha): 35
Plant response rating, Pigweed ([1]; 31 g ai/ha): 40
Pigweed plant response rating ([1]; 62 g ai/ha, scale 0 to 100 (0 no effect, 100 complete control)): 60
Pigweed plant response rating ([1]; 125 g ai/ha, scale 0 to 100 (0 no effect, 100 complete control)): 70
Plant response rating, Rice (rice (Oryza sativa)): 0
Plant response rating, Ducksalad [2]: 0
Plant response rating, Barnyardgrass [3]: 0
Plant response rating, Sedge, Umbrella [4]: 0
Wheat plant response rating (0 to 100 scale) ([5]; 125 g ai/ha): 0
Wheat plant response rating (0 to 100 scale) ([5]; 500 g ai/ha): 20
Kochia plant response rating (0 to 100 scale) (kochia (Kochia scoparia); 125 g ai/ha): 100
Kochia plant response rating (0 to 100 scale) (kochia (Kochia scoparia); 500 g ai/ha): 100
Ragweed plant response rating (0 to 100 scale) ([6]; 125 g ai/ha): 40
Ragweed plant response rating (0 to 100 scale) ([6]; 500 g ai/ha): 90
Foxtail, Giant plant response rating (0 to 100 scale) ([7]; 125 g ai/ha): 50
Foxtail, Giant plant response rating (0 to 100 scale) ([7]; 500 g ai/ha): 100
Barnyardgrass plant response rating (0 to 100 scale) ([8]; 125 g ai/ha): 30
Barnyardgrass plant response rating (0 to 100 scale) ([8]; 500 g ai/ha): 90
Ryegrass, Italian plant response rating (0 to 100 scale) ([9]; 125 g ai/ha): 20
Ryegrass, Italian plant response rating (0 to 100 scale) ([9]; 500 g ai/ha): 70
Galium plant response rating (0 to 100 scale) ([10]; 125 g ai/ha): 100
Galium plant response rating (0 to 100 scale) ([10]; 500 g ai/ha): 100
Pigweed plant response rating (0 to 100 scale) ([11]; 125 g ai/ha): 100
Pigweed plant response rating (0 to 100 scale) ([11]; 500 g ai/ha): 100
Blackgrass plant response rating (0 to 100 scale) ([12]; 125 g ai/ha): 30
Blackgrass plant response rating (0 to 100 scale) ([12]; 500 g ai/ha): 80
Corn plant response rating (0 to 100 scale) (corn (Zea mays); 125 g ai/ha): 10
Corn plant response rating (0 to 100 scale) (corn (Zea mays); 500 g ai/ha): 70

CCCOC(=O)c1c(Br)cccc1Oc1ncc(Cl)cn1 [Compound 13, propyl 2-bromo-6-[(5-chloro-2-pyrimidinyl)oxy]benzoate]
pest or weed control at 4 g/ha ([1]; Amaranthus retroflexus, post-emergence, 4 g ai/ha, scale of 0 to 100): 30%
pest or weed control at 8 g/ha ([1]; Amaranthus retroflexus, post-emergence, 8 g ai/ha, scale of 0 to 100): 60%
pest or weed control at 16 g/ha [1, 13]: 75%
pest or weed control at 31 g/ha [1, 14]: 70%
plant injury at 250 g/ha (rice (Oryza sativa)): 30%
pest or weed control at 250 g/ha [2]: 70%
pest or weed control at 250 g/ha [3]: 0%
pest or weed control at 250 g/ha [4]: 75%
plant injury at 125 g/ha ([5]; 125 g ai/ha): 20%
plant injury at 500 g/ha ([5]; 500 g ai/ha): 30%
pest or weed control at 125 g/ha (kochia (Kochia scoparia); 125 g ai/ha): 100%
pest or weed control at 500 g/ha (kochia (Kochia scoparia); 500 g ai/ha): 100%
pest or weed control at 125 g/ha ([6]; 125 g ai/ha): 0%
pest or weed control at 500 g/ha ([6]; 500 g ai/ha): 20%
pest or weed control at 125 g/ha ([7]; 125 g ai/ha): 80%
pest or weed control at 500 g/ha ([7]; 500 g ai/ha): 100%
pest or weed control at 125 g/ha ([8]; 125 g ai/ha): 80%
pest or weed control at 500 g/ha ([8]; 500 g ai/ha): 100%
pest or weed control at 125 g/ha ([9]; 125 g ai/ha): 0%
pest or weed control at 500 g/ha ([9]; 500 g ai/ha): 100%
pest or weed control at 125 g/ha ([10]; 125 g ai/ha): 100%
pest or weed control at 500 g/ha ([10]; 500 g ai/ha): 100%
pest or weed control at 125 g/ha ([11]; 125 g ai/ha): 90%
pest or weed control at 500 g/ha ([11]; 500 g ai/ha): 100%
pest or weed control at 125 g/ha ([12]; 125 g ai/ha): 30%
pest or weed control at 500 g/ha ([12]; 500 g ai/ha): 70%
plant injury at 125 g/ha (corn (Zea mays); 125 g ai/ha): 30%
plant injury at 500 g/ha (corn (Zea mays); 500 g ai/ha): 90%

O=C(OCCCC(F)(F)F)c1c(Br)cccc1Oc1ncc(Cl)cn1 [Compound 20, 4,4,4-trifluorobutyl 2-bromo-6-[(5-chloro-2-pyrimidinyl)oxy]benzoate]
pest or weed control at 16 g/ha [1, 13]: 85%
pest or weed control at 31 g/ha [1, 14]: 95%
pest or weed control at 62 g/ha ([1]; Amaranthus retroflexus, post-emergence, 62 g ai/ha, scale 0 to 100 (0 no effect, 100 complete control)): 98%
pest or weed control at 125 g/ha ([1]; Amaranthus retroflexus, post-emergence, 125 g ai/ha, scale 0 to 100 (0 no effect, 100 complete control)): 95%
plant injury at 250 g/ha (rice (Oryza sativa)): 0%
pest or weed control at 250 g/ha [2]: 30%
pest or weed control at 250 g/ha [3]: 0%
pest or weed control at 250 g/ha [4]: 40%
plant injury at 125 g/ha ([5]; 125 g ai/ha): 0%
plant injury at 500 g/ha ([5]; 500 g ai/ha): 20%
pest or weed control at 125 g/ha (kochia (Kochia scoparia); 125 g ai/ha): 90%
pest or weed control at 500 g/ha (kochia (Kochia scoparia); 500 g ai/ha): 100%
pest or weed control at 125 g/ha ([6]; 125 g ai/ha): 0%
pest or weed control at 500 g/ha ([6]; 500 g ai/ha): 40%
pest or weed control at 125 g/ha ([7]; 125 g ai/ha): 50%
pest or weed control at 500 g/ha ([7]; 500 g ai/ha): 100%
pest or weed control at 125 g/ha ([8]; 125 g ai/ha): 30%
pest or weed control at 500 g/ha ([8]; 500 g ai/ha): 100%
pest or weed control at 125 g/ha ([9]; 125 g ai/ha): 0%
pest or weed control at 500 g/ha ([9]; 500 g ai/ha): 40%
pest or weed control at 125 g/ha ([10]; 125 g ai/ha): 10%
pest or weed control at 500 g/ha ([10]; 500 g ai/ha): 90%
pest or weed control at 125 g/ha ([11]; 125 g ai/ha): 100%
pest or weed control at 500 g/ha ([11]; 500 g ai/ha): 100%
pest or weed control at 125 g/ha ([12]; 125 g ai/ha): 30%
pest or weed control at 500 g/ha ([12]; 500 g ai/ha): 50%
plant injury at 125 g/ha (corn (Zea mays); 125 g ai/ha): 30%
plant injury at 500 g/ha (corn (Zea mays); 500 g ai/ha): 40%
